Source: PubChem BioAssay (NCI)
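Step 1: Grow cells in 96-well plates. Step 2: Expose to compound for 48 hours at 5 concentrations. Step 3: Interpolate endpoints linearly; if unreached, use highest concentration. GI50: concentration for 50% inhibition of growth. TGI: concentration producing complete growth inhibition.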

What was measured:
Assay in all cases: NCI anticancer screen, dose series, 48 h
[1] = system: UO-31 renal
[2] = system: HOP-92 NSCLC
[3] = system: M14 melanoma
[4] = system: SNB-19 CNS
[5] = system: PC-3 prostate
[6] = system: RPMI-8226 leukemia
[7] = system: HS 578T breast
[8] = system: NCI-H226 lung
[9] = system: SK-MEL-5 melanoma
[10] = system: OVCAR-3 ovarian

CCc1nc2cc(/C=C/C(=O)NO)ccc2c(=O)n1CCc1ccc(F)cc1 showed a GI50 [1] of 1410 nM, a TGI [1] of 3.11 µM and a GI50 [2] of 2450 nM. The TGI [2] was 6.28 µM, the GI50 [3] was 1650 nM and the TGI [3] was 3.6 µM. It also gave a GI50 [4] of 1.82 µM, a TGI [4] of 5.34 µM and a GI50 [5] of 2920 nM. The TGI [5] was over 100 µM, the GI50 [6] was 990 nM and the TGI [6] was over 100 µM. For the same compound, the GI50 [7] was 2260 nM, the TGI [7] was over 100 µM and the GI50 [8] was 1.71 µM. The TGI [8] was 4.59 µM, the GI50 [9] was 903 nM and the TGI [9] was 2.21 µM.
For CC(CCCC1SCC2NC(=O)NC21)C(=O)O (centres undefined), the TGI [1] was over 100 µM, the TGI [2] was over 100 µM and the TGI [3] was over 100 µM. It also gave a TGI [4] of over 100 µM, a TGI [10] of over 100 µM and a TGI [5] of over 100 µM. For the same compound, the TGI [6] was over 100 µM, the TGI [7] was over 100 µM and the TGI [8] was over 100 µM. For the same compound, the TGI [9] was over 100 µM.
In the case of COc1ccc(/C=C2\CC(C)CC3C2=NN(c2ccccc2)C3c2ccc(OC)c(OC)c2)cc1OC (centres undefined), the GI50 [1] is reported as 5750 nM, the TGI [1] is reported as over 100 µM and the GI50 [2] is reported as 5320 nM. The TGI [2] was over 100 µM, the GI50 [4] was 7.39 µM and the TGI [4] was over 100 µM. It also gave a GI50 [10] of 3710 nM, a TGI [10] of over 100 µM and a GI50 [5] of 6320 nM. It also gave a TGI [5] of over 100 µM, a GI50 [6] of 3380 nM and a TGI [6] of over 100 µM. The GI50 [7] was over 100000 nM, the TGI [7] was over 100 µM and the GI50 [8] was 3.09 µM. For the same compound, the TGI [8] was 9.75 µM, the GI50 [9] was 2410 nM and the TGI [9] was 6.94 µM.
O=C(Nc1nc(-c2ccc(Cl)cc2)nc2c1sc(=S)n2-c1ccccc1)C(F)(F)F gave a GI50 [1] of 1870 nM, a TGI [1] of 4.04 µM and a GI50 [2] of 2350 nM. The TGI [2] was 6.08 µM, the GI50 [3] was 7610 nM and the TGI [3] was over 100 µM. It also gave a GI50 [4] of 7.18 µM, a TGI [4] of 37.5 µM and a GI50 [10] of 2810 nM. It also gave a TGI [10] of 6.97 µM, a GI50 [5] of 8950 nM and a TGI [5] of 71.4 µM. It also gave a GI50 [6] of 8370 nM, a TGI [6] of over 100 µM and a GI50 [7] of 3370 nM. For the same compound, the TGI [7] was 9.7 µM, the GI50 [8] was 2.89 µM and the TGI [8] was 9.61 µM. The GI50 [9] was 8230 nM and the TGI [9] was 32.3 µM.
Compound Nc1nc(N)c(N=Nc2ccc(C(=O)O)c(O)c2)c(N)n1 has a TGI [1] of over 100 µM, a TGI [2] of over 100 µM and a TGI [3] of over 100 µM. For the same compound, the TGI [4] was over 100 µM, the TGI [10] was 53.8 µM and the TGI [5] was over 100 µM. The TGI [6] was over 100 µM, the TGI [7] was over 100 µM and the TGI [8] was over 100 µM. The TGI [9] was over 100 µM.
Compound C=C1NC(=O)C(CC(C(=O)C(=O)Nc2c(C)cccc2C(C)(C)C)C(=O)c2ccc3ccccc3c2)C(=O)N1 (centres undefined) has a TGI [1] of over 100 µM, a TGI [2] of over 100 µM and a TGI [3] of over 100 µM. The TGI [4] was over 100 µM, the TGI [10] was over 100 µM and the TGI [5] was over 100 µM. It also gave a TGI [6] of over 100 µM, a TGI [7] of over 100 µM and a TGI [8] of over 100 µM. The TGI [9] was over 100 µM.
In the case of Cc1cc(NNC(=O)c2ccccc2O)nc(Nc2nc3ccccc3o2)n1, the GI50 [1] is reported as 622 nM, the TGI [1] is reported as 1.91 µM and the GI50 [2] is reported as 1110 nM. For the same compound, the TGI [2] was 13.9 µM, the GI50 [3] was 854 nM and the TGI [3] was 3.44 µM. For the same compound, the GI50 [4] was 1.86 µM, the TGI [4] was 21.3 µM and the GI50 [10] was 2060 nM. For the same compound, the TGI [10] was 15.6 µM, the GI50 [5] was 912 nM and the TGI [5] was 13.7 µM. The GI50 [6] was 1850 nM, the TGI [6] was 13.9 µM and the GI50 [7] was 3260 nM. For the same compound, the TGI [7] was 37.5 µM, the GI50 [8] was 1.66 µM and the TGI [8] was 8.47 µM. It also gave a GI50 [9] of 1110 nM and a TGI [9] of 6.72 µM.
Cc1cn2c(/C=C3/C(=O)Nc4ccc(F)cc43)c(C)nc2s1 showed a GI50 [1] of 6620 nM, a TGI [1] of 40.8 µM and a GI50 [2] of 4740 nM. It also gave a TGI [2] of 29 µM, a GI50 [3] of 2680 nM and a TGI [3] of 17 µM. For the same compound, the GI50 [4] was 5.56 µM, the TGI [4] was over 50 µM and the GI50 [10] was 3500 nM. The TGI [10] was over 50 µM, the GI50 [5] was 9510 nM and the TGI [5] was over 50 µM. The GI50 [6] was 20300 nM, the TGI [6] was over 50 µM and the GI50 [7] was 7980 nM. The TGI [7] was 28.2 µM, the GI50 [8] was 17.1 µM and the TGI [8] was over 50 µM. The GI50 [9] was 2310 nM and the TGI [9] was 9.61 µM.
In the case of CC[C@@H](C)Nc1cc(C(=O)NC2CC3CCC(C2)N3c2ccc(C(=O)C3CC3)cn2)c(C)cc1C(N)=O (some centres undefined), the GI50 [1] is reported as 47.9 nM, the TGI [1] is reported as over 100 µM and the GI50 [2] is reported as 42.2 nM. For the same compound, the TGI [2] was 0.599 µM, the GI50 [3] was 48.9 nM and the TGI [3] was over 84 µM. The GI50 [4] was 0.0604 µM, the TGI [4] was over 100 µM and the GI50 [10] was 67.2 nM. For the same compound, the TGI [10] was over 88.1 µM, the GI50 [5] was 46.9 nM and the TGI [5] was over 100 µM. For the same compound, the GI50 [6] was 53.8 nM, the TGI [6] was over 74.3 µM and the GI50 [7] was 186 nM. The TGI [7] was over 100 µM, the GI50 [8] was 0.0568 µM and the TGI [8] was 51.1 µM. For the same compound, the GI50 [9] was 59.9 nM and the TGI [9] was 8.35 µM.
Compound CC(C)CCC(=O)[C@@H](C)[C@H]1[C@@H](OC2OCC(O)C(O)C2NS(C)(=O)=O)C[C@H]2[C@@H]3CC=C4C[C@@H](O)CC[C@]4(C)[C@H]3CC[C@]12C (some centres undefined) has a GI50 [1] of 782 nM, a TGI [1] of 2.12 µM and a GI50 [2] of 3020 nM. For the same compound, the TGI [2] was 10.6 µM, the GI50 [3] was 512 nM and the TGI [3] was 1.58 µM. It also gave a GI50 [4] of 1.34 µM, a TGI [4] of 6.77 µM and a GI50 [10] of 2720 nM. For the same compound, the TGI [10] was 10.3 µM, the GI50 [5] was 982 nM and the TGI [5] was 4.16 µM. For the same compound, the GI50 [6] was 120 nM, the TGI [6] was 0.419 µM and the GI50 [7] was 423 nM. It also gave a TGI [7] of 3.41 µM, a GI50 [9] of 1260 nM and a TGI [9] of 4.51 µM.
C=C1CCC2C3(C)COC(c4ccc(Cl)cc4)OC3CCC2(C)C1/C=C/C1=CCOC1=O (centres undefined) gave a GI50 [1] of over 100000 nM, a TGI [1] of over 100 µM and a GI50 [2] of 9960 nM. The TGI [2] was 39.1 µM, the GI50 [3] was 27200 nM and the TGI [3] was over 100 µM. It also gave a GI50 [4] of 15.9 µM, a TGI [4] of 88.4 µM and a GI50 [10] of 7520 nM. It also gave a TGI [10] of 56.8 µM, a GI50 [5] of 1670 nM and a TGI [5] of 69.9 µM. The GI50 [6] was 602 nM, the TGI [6] was over 100 µM and the GI50 [7] was 11500 nM. For the same compound, the TGI [7] was 42.5 µM, the GI50 [8] was 7.06 µM and the TGI [8] was over 100 µM. For the same compound, the GI50 [9] was 1880 nM and the TGI [9] was 31.1 µM.
CCOc1c(C#N)c2c(N)ncnc2n1C1OC(CO)C(O)C1O (centres undefined) was tested, and the GI50 [1] was 2860 nM, the TGI [1] was over 40.3 µM and the GI50 [2] was 2820 nM. The TGI [2] was over 100 µM, the GI50 [3] was 1920 nM and the TGI [3] was 5.57 µM. For the same compound, the GI50 [4] was 9.1 µM, the TGI [4] was over 100 µM and the GI50 [10] was 2530 nM. The TGI [10] was 7.09 µM, the GI50 [5] was 2770 nM and the TGI [5] was over 31.7 µM. For the same compound, the GI50 [6] was 2120 nM, the TGI [6] was 9 µM and the GI50 [7] was 2120 nM. It also gave a TGI [7] of 14 µM, a GI50 [8] of 6.93 µM and a TGI [8] of over 91.8 µM. For the same compound, the GI50 [9] was 3790 nM and the TGI [9] was 16.6 µM.
In the case of O=C(Nc1ccc2c(c1)OCO2)C(=O)c1c[nH]c2cc(F)ccc12, the GI50 [1] is reported as 4420 nM, the TGI [1] is reported as 44.9 µM and the GI50 [2] is reported as 1120 nM. For the same compound, the TGI [2] was 5.6 µM, the GI50 [3] was 466 nM and the TGI [3] was 10.9 µM. It also gave a GI50 [4] of 7.74 µM, a TGI [4] of 77.3 µM and a GI50 [10] of 4670 nM. It also gave a TGI [10] of 19 µM, a GI50 [5] of 3330 nM and a TGI [5] of over 100 µM. For the same compound, the GI50 [6] was 50000 nM, the TGI [6] was over 100 µM and the GI50 [7] was 2630 nM. It also gave a TGI [7] of 62.7 µM, a GI50 [8] of 3.74 µM and a TGI [8] of 16.8 µM. It also gave a GI50 [9] of 726 nM and a TGI [9] of 10.6 µM.
